Source: patent publication US9227971B2, “Pyrazolo[1,5-a]pyrimidine compounds as mTOR inhibitors” (Merck Sharp & Dohme Corp., priority 2010, dated 2016)
Where two headings read alike, the source gives them in different places.

Experiments:
[1] = tested on: phosphorylated AKT Ser473 (pAKT S473), mTORC2 activity, PC3 cells; experiment: mTOR target engagement assay, immunofluorescent cell-based, pAKT S473 readout (mTORC2 activity); settings: Homo sapiens
In short: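 After blocking, cells were stained overnight at 4 °C with anti-pAKT S473 antibody, then a fluorescent secondary; inhibition was read as reduced fluorescence intensity.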

[2] = tested on: phosphorylated 4E-BP1 Thr37/46 (p4E-BP1 Thr37/46), mTORC1 activity, PC3 cells; experiment: mTOR target engagement assay, immunofluorescent cell-based, p4E-BP1 Thr37/46 readout (mTORC1 activity); settings: Homo sapiens, read-out: p4E-BP1 Thr37/46 IC50
In short: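 Seed PC3 cells overnight; treat with compound dilutions for ninety minutes at 37° C; fix with glyoxal and block; stain with anti-p4E-BP1 Thr37/46 overnight at 4° C, then fluorescent secondary; read fluorescence and fit IC50 against DMSO-only controls.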

[3] = PC-3, PC3 cells, compound treatment ninety minutes at 37° C.

SMILES | IC50 [1, 3] [nM] | IC50 [2, 3] [nM] | IC50 ([1]; PC-3, PC3 cells) [nM] | IC50 ([2]; PC-3, PC3 cells) [nM] | other results
CC(=O)c1c([C@@H]2C[C@H]3CC[C@@H](C2)N3C(=O)CO)nc2c(-c3ccc(-c4nn(C)cc4F)nc3)cnn2c1N [Compound 1.1.94, 1-((1R,3s,5S)-3-(6-acetyl-7-amino-3-(6-(4-fluoro-1-methyl-1H-pyrazol-3-yl)pyridin-3-yl)pyrazolo[1,5-a]pyrimidin-5-yl)-8-azabicyclo[3.2.1]octan-8-yl)-2-hydroxyethanone] | 100 to 1000 | 100 to 1000 | – | – | –
Cc1n[nH]c(CC(=O)N2[C@@H]3CC[C@H]2C[C@H](c2nc4c(-c5ccc(-c6ccccc6)nc5)cnn4c(N)c2S(C)(=O)=O)C3)n1 [Compound 3.82, 1-((1R,3s,5S)-3-(7-amino-6-(methylsulfonyl)-3-(6-phenylpyridin-3-yl)pyrazolo[1,5-a]pyrimidin-5-yl)-8-azabicyclo[3.2.1]octan-8-yl)-2-(3-methyl-1H-1,2,4-triazol-5-yl)ethanone] | – | – | – | – | IC50 ([1]; PC-3, Table 3-1, PC3 cells): 100 to 1000 nM; IC50 ([2]; PC-3, Table 3-1, PC3 cells): 100 to 1000 nM
CC(=O)c1c([C@@H]2C[C@H]3CC[C@@H](C2)N3C(=O)c2nnc[nH]2)nc2c(-c3ccc(-c4nnn(C)n4)nc3)cnn2c1N [Compound 1.1.63, 1-(5-((1R,3s,5S)-8-(4H-1,2,4-triazole-3-carbonyl)-8-azabicyclo[3.2.1]octan-3-yl)-7-amino-3-(6-(2-methyl-2H-tetrazol-5-yl)pyridin-3-yl)pyrazolo[1,5-a]pyrimidin-6-yl)ethanone] | 1 to 100 | 1 to 100 | – | – | –
CC(=O)c1c([C@@H]2C[C@H]3CC[C@@H](C2)N3C(=O)c2nnc(C)[nH]2)nc2c(-c3ccc(C(C)(C)O)nc3)cnn2c1N [Compound 7.9, 1-(7-amino-3-(6-(2-hydroxypropan-2-yl)pyridin-3-yl)-5-((1R,3s,5S)-8-(5-methyl-4H-1,2,4-triazole-3-carbonyl)-8-azabicyclo[3.2.1]octan-3-yl)pyrazolo[1,5-a]pyrimidin-6-yl)ethanone] | 100 to 1000 | 100 to 1000 | – | – | –
CC(=O)c1c([C@@H]2C[C@H]3CC[C@@H](C2)N3C(=O)c2nnc[nH]2)nc2c(-c3ccc(C#CCO)nc3)cnn2c1N [Compound 8.56, 1-(5-((1R,3s,5S)-8-(4H-1,2,4-triazole-3-carbonyl)-8-azabicyclo[3.2.1]octan-3-yl)-7-amino-3-(6-(3-hydroxyprop-1-ynyl)pyridin-3-yl)pyrazolo[1,5-a]pyrimidin-6-yl)ethanone] | – | – | 100 to 1000 | 100 to 1000 | –
CC(=O)c1c([C@@H]2C[C@H]3CC[C@@H](C2)N3C(=O)c2nnc[nH]2)nc2c(-c3ccc([C@@H](C)O)cc3)cnn2c1N [Compound 7.21, 1-(5-((1R,3s,5S)-8-(4H-1,2,4-triazole-3-carbonyl)-8-azabicyclo[3.2.1]octan-3-yl)-7-amino-3-(4-((R)-1-hydroxyethyl)phenyl)pyrazolo[1,5-a]pyrimidin-6-yl)ethanone] | 1 to 100 | 1 to 100 | – | – | –
CC(C)(O)c1ccc(-c2cnn3c(N)c(S(C)(=O)=O)c([C@@H]4C[C@H]5CC[C@@H](C4)N5C(=O)c4nnc[nH]4)nc23)cn1 [Compound 7.27, ((1R,3s,5S)-3-(7-amino-3-(6-(2-hydroxypropan-2-yl)pyridin-3-yl)-6-(methylsulfonyl)pyrazolo[1,5-a]pyrimidin-5-yl)-8-azabicyclo[3.2.1]octan-8-yl)(1H-1,2,4-triazol-5-yl)methanone] | – | – | – | – | IC50 ([1]; PC-3, Table 7-2, PC3 cells): 1 to 100 nM; IC50 ([2]; PC-3, Table 7-2, PC3 cells): 1 to 100 nM
COc1ccc(-c2ccc(-c3cnn4c(N)c(S(C)(=O)=O)c([C@H]5CC6CC[C@H](C5)N6C(=O)c5cn[nH]n5)nc34)cn2)cc1F [Compound 3.169, ((1R,3a,5S)-3-(7-amino-3-(6-(3-fluoro-4-methoxyphenyl)pyridin-3-yl)-6-(methylsulfonyl)pyrazolo[1,5-a]pyrimidin-5-yl)-8-azabicyclo[3.2.1]octan-8-yl)(2H-1,2,3-triazol-4-yl)methanone] | – | – | – | – | IC50 ([1]; PC-3, Table 3-1, PC3 cells): 1 to 100 nM; IC50 ([2]; PC-3, Table 3-1, PC3 cells): 100 to 1000 nM
CNC(=O)Nc1ccc(-c2cnn3c(N)c(C(C)=O)c([C@@H]4C[C@H]5CC[C@@H](C4)N5C(=O)c4nnc[nH]4)nc23)cc1 [Compound 8.85, 1-(4-(5-((1R,3s,5S)-8-(4H-1,2,4-triazole-3-carbonyl)-8-azabicyclo[3.2.1]octan-3-yl)-6-acetyl-7-aminopyrazolo[1,5-a]pyrimidin-3-yl)phenyl)-3-methylurea] | – | – | 1 to 100 | 100 to 1000 | –
CS(=O)(=O)c1c([C@H]2CC3CC[C@H](C2)N3C(=O)c2nnc[nH]2)nc2c(-c3ccc(C4CCCC4)nc3)cnn2c1N [Compound 3.166, ((1R,3s,5S)-3-(7-amino-3-(6-cyclopentylpyridin-3-yl)-6-(methylsulfonyl)pyrazolo[1,5-a]pyrimidin-5-yl)-8-azabicyclo[3.2.1]octan-8-yl)(4H-1,2,4-triazol-3-yl)methanone] | – | – | – | – | IC50 ([1]; PC-3, Table 3-1, PC3 cells): 100 to 1000 nM; IC50 ([2]; PC-3, Table 3-1, PC3 cells): 100 to 1000 nM
Cc1nc(-c2ccc(-c3cnn4c(N)c(S(C)(=O)=O)c([C@@H]5C[C@H]6CC[C@@H](C5)N6C(=O)c5nnc[nH]5)nc34)cn2)sc1C [Compound 3.196, ((1R,3s,5S)-3-(7-amino-3-(6-(4,5-dimethylthiazol-2-yl)pyridin-3-yl)-6-(methylsulfonyl)pyrazolo[1,5-a]pyrimidin-5-yl)-8-azabicyclo[3.2.1]octan-8-yl)(4H-1,2,4-triazol-3-yl)methanone] | – | – | – | – | IC50 ([1]; PC-3, Table 3-1, PC3 cells): 100 to 1000 nM; IC50 ([2]; PC-3, Table 3-1, PC3 cells): 100 to 1000 nM
COCCNC(=O)N1[C@@H]2CC[C@H]1C[C@H](c1nc3c(-c4ccc(-c5ccccc5)nc4)cnn3c(N)c1C1CC1)C2 [Compound 4.7, (1R,3s,5S)-3-(7-amino-6-cyclopropyl-3-(6-phenylpyridin-3-yl)pyrazolo[1,5-a]pyrimidin-5-yl)-N-(2-methoxyethyl)-8-azabicyclo[3.2.1]octane-8-carboxamide] | 100 to 1000 | 100 to 1000 | – | – | –
CC(=O)c1c([C@@H]2C[C@H]3CC[C@@H](C2)N3S(=O)(=O)c2nnc[nH]2)nc2c(-c3ccc(-c4ccccc4)nc3)cnn2c1N [Compound 1.1.42, 1-(5-((1R,3s,5S)-8-(4H-1,2,4-triazol-3-ylsulfonyl)-8-azabicyclo[3.2.1]octan-3-yl)-7-amino-3-(6-phenylpyridin-3-yl)pyrazolo[1,5-a]pyrimidin-6-yl)ethanone] | 100 to 1000 | 100 to 1000 | – | – | –
CC(=O)c1c(C2CC3CCCC(C2)N3C(=O)c2nc[nH]n2)nc2c(-c3ccc(-c4ccccc4)nc3)cnn2c1N (stereo not shown) [Compound 8.33, 1-(5-(9-(1H-1,2,4-triazole-3-carbonyl)-9-azabicyclo[3.3.1]nonan-3-yl)-7-amino-3-(6-phenylpyridin-3-yl)pyrazolo[1,5-a]pyrimidin-6-yl)ethanone] | – | – | 100 to 1000 | 100 to 1000 | –
CS(=O)(=O)c1c([C@H]2CC3CC[C@H](C2)N3C(=O)c2cc[nH]n2)nc2c(-c3ccc(C(O)C(F)(F)F)nc3)cnn2c1N (stereo partly drawn) [Compound 7.69, ((1R,3s,5S)-3-(7-amino-6-(methylsulfonyl)-3-(6-(2,2,2-trifluoro-1-hydroxyethyl)pyridin-3-yl)pyrazolo[1,5-a]pyrimidin-5-yl)-8-azabicyclo[3.2.1]octan-8-yl)(1H-pyrazol-3-yl)methanone] | – | – | 1000 to 10000 | 1000 to 10000 | –
CC(=O)c1c([C@@H]2C[C@H]3CC[C@@H](C2)N3C(=O)CO)nc2c(-c3ccc(-c4cc(C)[nH]n4)nc3)cnn2c1N [Compound 1.1.96, 1-((1R,3s,5S)-3-(6-acetyl-7-amino-3-(6-(5-methyl-1H-pyrazol-3-yl)pyridin-3-yl)pyrazolo[1,5-a]pyrimidin-5-yl)-8-azabicyclo[3.2.1]octan-8-yl)-2-hydroxyethanone] | > 10000 | > 10000 | – | – | –
CC(=O)c1c(N2C3CCC2CN(C(=O)CO)C3)nc2c(-c3ccc(-c4ccccc4)nc3)cnn2c1N [Compound 8.7, 1-(8-(6-acetyl-7-amino-3-(6-phenylpyridin-3-yl)pyrazolo[1,5-a]pyrimidin-5-yl)-3,8-diazabicyclo[3.2.1]octan-3-yl)-2-hydroxyethanone] | – | – | 100 to 1000 | 1000 to 10000 | –
CS(=O)(=O)c1c(C2CC3COCC(C2)N3C(=O)C2(O)CC2)nc2c(-c3ccc(-c4ccccc4)nc3)cnn2c1N (single isomer, unassigned) [Compound 8.32, (7-(7-amino-6-(methylsulfonyl)-3-(6-phenylpyridin-3-yl)pyrazolo[1,5-a]pyrimidin-5-yl)-3-oxa-9-azabicyclo[3.3.1]nonan-9-yl)(1-hydroxycyclopropyl)methanone] | – | – | 1 to 100 | 100 to 1000 | –
Cn1ccc(-c2ccc(-c3cnn4c(N)c(S(C)(=O)=O)c([C@@H]5C[C@H]6CC[C@@H](C5)N6C(=O)c5nnc[nH]5)nc34)cn2)n1 [Compound 3.40, ((1R,3s,5S)-3-(7-amino-3-(6-(1-methyl-1H-pyrazol-3-yl)pyridin-3-yl)-6-(methylsulfonyl)pyrazolo[1,5-a]pyrimidin-5-yl)-8-azabicyclo[3.2.1]octan-8-yl)(4H-1,2,4-triazol-3-yl)methanone] | – | – | – | – | IC50 ([1]; PC-3, Table 3-1, PC3 cells): 1 to 100 nM; IC50 ([2]; PC-3, Table 3-1, PC3 cells): 1 to 100 nM
CC(=O)c1c([C@@H]2C[C@H]3CC[C@@H](C2)N3C(=O)c2nnc[nH]2)nc2c(-c3cnn(-c4ccc(F)cc4)c3)cnn2c1N [Compound 1.1.123, 1-(5-((1R,3s,5S)-8-(4H-1,2,4-triazole-3-carbonyl)-8-azabicyclo[3.2.1]octan-3-yl)-7-amino-3-(1-(4-fluorophenyl)-1H-pyrazol-4-yl)pyrazolo[1,5-a]pyrimidin-6-yl)ethanone] | 100 to 1000 | 1000 to 10000 | – | – | –
